Experimental data published in patent US20100311756A1, “METHODS FOR DELAYING THE PROGRESSION OF AT LEAST ONE OF CARDIAC HYPERTROPHY, CARDIAC REMODELING OR LEFT VENTRICULAR FUNCTION OR THE ONSET OF HEART FAILURE IN SUBJECTS IN NEED OF TREATMENT THEREOF” (TAKEDA PHARMACEUTICALS NORTH AMERICA, INC., priority 2009, published 2010).

Test: Serum uric acid level in rabbits (unpublished observations, 1998)
Format: in vivo
Conditions: oral dose of 10 mg/kg
Source text: The procedures used in this study were reviewed and approved by the Institutional Animal Care and Use Committee (IACUC) of QTest Labs for compliance with regulations and current accepted practices. All applicable sections of the Final Rules of the Animal Welfare Act regulations (Section 9 CFR) and the Public Health Service Policy on Humane Care and Use of Laboratory Animals (OPRR, NIH, 1986) were followed. At the end of the study, all animals were humanely euthanized in accordance with accepted guidelines of the American Veterinary Medical Association (See, American Veterinary Medicine Association (AVMA), 2000 Report of the AVMA Panel on Euthanasia, The Journal of the American Veterinary Medical Association, 218(5):669-696 (2001)). • Drugs Febuxostat and allopurinol (Sigma-Aldrich, St. Louis, Mo., USA) were each formulated as a suspension in 0.5% methylcellulose (Sigma-Aldrich, St. Louis, Mo.) as the vehicle. The febuxostat oral dose of 10 mg/kg was estimated to provide a similar plasma level of febuxostat as the clinically efficacious dose (See, Khosravan et al., Clinical Pharmacokinetics, 45(8):821-841 (2006)). […] Allopurinol was given orally at 60 mg/kg. […] The rabbits were anesthetized with an intramuscular injection of ketamine (35 mg/kg)/xylazine (5 mg/kg) and pre-surgery enrofloxacin (12 mg/kg). […]

## Cc1nc(-c2ccc(OCC(C)C)c(C#N)c2)sc1C(=O)O [febuxostat, 2-[3-cyano-4-(2-methylpropoxy)phenyl]-4-methylthiazole-5-carboxylic acid]
  Serum uric acid level: significant reduction
